Measurements taken from patent US5852033A, “Methods of treatment using lamellarin-class alkaloids” (Pharma Mar, s.a., priority 1995, dated 1998).
Converted amounts (≈) assume the structure as drawn. Read-outs that look alike come from different tables or passages of the source.

Legend:
P-388/SCHABEL (MDR) = assay: LAMELLARINS TOXICITY TO RESISTANT (MDR) TUMOR CELL LINE P-388/SCHABEL (MTT); type: cell-based; settings: Mus musculus, P388, 72 h; P-388/SCHABEL (MDR), MTT, three days; read-out: ACTIVITY: IC50
Method: (§1) Sensitive and MDR cells were maintained, in logarithmic phase of growth, in Eagle's Minimum Essential Medium, with Earle's Balanced Salts, with non-essential amino acids, with 2.0 mM L-glutamine, without sodium bicarbonate (EMEM/neaa), supplemented with 5% Fetal Calf Serum (FCS), 10^-2 M sodium bicarbonate and 0.1 g/l penicillin G+0.1 g/l streptomycin sulfate.
(§2) In Vitro cell cytotoxicity was determined using the 3-[4,5-dimethylthiazol-2-yl]-2,5-dipheniltetrazolium bromide (MTT), from Sigma Ref:M-2128, for quantitative measurement of cell growth and viability. See, T. Mosmann, "Rapid Colorimetric Assay for Cellular Growth and Survival: Application to Proliferation and Cytotoxicity Assays," Journal of Immunological Methods, 65: 55-63 (1983).
(§3) The tumor cell lines employed have been: P-388 (ATCC CCL 46), suspension culture of a lymphoid neoplasm from a DBA/2 mouse and its corresponding MDR cell line P-388/SCHABEL; CHOB1 (ATCC CCL 16), monolayer culture of chinese hamster ovary and its corresponding MDR cell line CHOC5. See, Rauscher Ill, et al., "Characterization of Auromycin-Resistant Hamster Cell Mutants that Display a Multidrug Resistance Phenotype," Molecular Pharmacology, 38: 198-206 (1990).
(§4) This form of assay employs 96-well cell culture plates […]. Cells were seeded into wells at 1×10^3 cells per well in 100 μl aliquots of EMEM 5% FCS containing different concentrations of the corresponding lamellarins and other compounds (standards) to be tested. Two separate sets of cultures without drugs were seeded, one as control of growth to ensure that cells remained in exponential phase of growth, and another without cells as control of medium. All determinations were carried out in duplicate.
(§5) After three days of incubation at 37° C., 10% CO2 in a 98% humid atmosphere, 150 μg of MTT is added to each well in 50 μl aliquots of assay medium. Plates were incubated for an additional 4 hours and 100 μl aliquots of isopropanol were added to each well. The broad absorption spectrum for the isopropanol solution of this crystal is optimal at 570 nm. Optical density values were obtained with the help of a Dynatech microplate reader and the results of the assay were used to generate graphics from which IC50 was calculated; i.e., wherein the IC50 is the test concentration which produces 50% cell growth inhibition.

P-388/SCHABEL = assay: Adriamycin toxicity to resistant cells (MDR) in presence or absence of reversing agents, P-388/SCHABEL; type: cell-based; settings: Mus musculus, P388; control, Adriamycin only, R.A. 0 μg/ml
Method: (§6) Gain of Sensitivity (G.S.) = IC50 Control/IC50 R.A.
as §1, §4
(§7) Plates were incubated for an additional 4 hours and 100 μl aliquots of isopropanol were added to each well. The broad absorption spectrum for the isopropanol solution of this crystal is optimal at 570 nm.

CHOC5 = assay: Adriamycin toxicity to resistant cells (MDR) in presence or absence of reversing agents, CHOC5; type: cell-based, chinese hamster; settings: Cricetulus griseus; control, Adriamycin only, R.A. 0 μg/ml
Method: as §6, §1, §4, §7

CHOB1 = assay: LAMELLARINS TOXICITY TO SENSITIVE TUMOR CELL LINE CHOB1 (MTT); type: cell-based, chinese hamster; settings: Cricetulus griseus, 72 h; CHOB1, sensitive, MTT, three days; read-out: ACTIVITY: IC50
Method: as §1, §2, §3, §4, §5

P-388 = assay: LAMELLARINS TOXICITY TO SENSITIVE TUMOR CELL LINE P-388 (MTT); type: cell-based; settings: Mus musculus, P388, 72 h; P-388, sensitive, MTT, three days; read-out: ACTIVITY: IC50
Method: as §1, §2, §3, §4, §5

CHOC5 (MDR) = assay: LAMELLARINS TOXICITY TO RESISTANT (MDR) TUMOR CELL LINE CHOC5 (MTT); type: cell-based, chinese hamster; settings: Cricetulus griseus, 72 h; CHOC5 (MDR), MTT, three days; read-out: ACTIVITY: IC50
Method: as §1, §2, §3, §4, §5

HT-29 = assay: Lamellarin in vitro activity vs. tumor cell lines, HT-29; type: cell-based; settings: Homo sapiens; HT-29, Table IV
A549 = assay: Lamellarin in vitro activity vs. tumor cell lines, A549; settings: for IC50: Homo sapiens
P388 = assay: Lamellarin in vitro activity vs. tumor cell lines, P388; settings: Mus musculus
MEL-28 = assay: Lamellarin in vitro activity vs. tumor cell lines, MEL-28; type: cell-based; settings: Homo sapiens, SK-MEL-28; MEL-28, Table IV

| SMILES | IC50 (P-388/SCHABEL (MDR)) [µg/mL] | IC50 (P-388/SCHABEL) [µg/mL] | IC50 (CHOC5) [µg/mL] | IC50 (CHOB1) [µg/mL] | IC50 (P-388) [µg/mL] | IC50 (CHOC5 (MDR)) [µg/mL] | IC50 (HT-29) [µg/mL] | IC50 (A549; A549) [µg/mL] | IC50 (A549; A549, read-out: cytotoxicity IC50) [µg/mL] | IC50 (P388; P388) [µg/mL] | IC50 (P388; P388, read-out: cytotoxicity IC50) [µg/mL] | in vitro antitumor activities (A549; compared with lamellarins I, K and L, particularly A549 cells) | IC50 (MEL-28) [µg/mL] |
| --- | --- | --- | --- | --- | --- | --- | --- | --- | --- | --- | --- | --- | --- |
| COc1cccc2c1C(=O)c1c(O)c3c(c(O)c1C2=O)C[C@@](O)(C(=O)CO)C[C@@H]3O[C@H]1C[C@H](N)[C@H](O)[C@H](C)O1 [Adriamycin, reference compound] | 1.2 (≈ 2.21 µM) | 1.2 | 3 | 0.15 (≈ 0.276 µM) | 0.15 (≈ 0.276 µM) | 3 (≈ 5.52 µM) | – | – | – | – | – | – | – |
| COc1cc(-c2c3n(c4c(=O)oc5cc(O)c(OC)cc5c24)C(O)Cc2c-3cc(OC)c(OC)c2OC)ccc1O (centres unmarked) [Lamellarin A] | 0.5 (≈ 0.89 µM) | – | – | 0.2 (≈ 0.356 µM) | 0.5 (≈ 0.89 µM) | 0.4 (≈ 0.712 µM) | – | – | – | – | – | – | – |
| COc1cc(-c2c3c4cc(OC)c(O)cc4oc(=O)c3n3ccc4c(OC)c(OC)c(OC)cc4c23)ccc1O [Lamellarin B] | 5.5 (≈ 10.1 µM) | – | – | 3 (≈ 5.52 µM) | 5.5 (≈ 10.1 µM) | 10 (≈ 18.4 µM) | – | – | – | – | – | – | – |
| COc1cc(-c2c3c4cc(OC)c(OC(C)=O)cc4oc(=O)c3n3ccc4cc(OC(C)=O)c(OC)cc4c23)ccc1OC(C)=O [Lamellarin D-triacetate] | 0.09 (≈ 0.144 µM) | – | – | 0.03 (≈ 0.048 µM) | 0.07 (≈ 0.112 µM) | 0.04 (≈ 0.0639 µM) | – | – | – | – | – | – | – |
| COc1ccc(-c2c3n(c4c(=O)oc5cc(OC)c(OC)cc5c24)CCc2c-3cc(OC)c(OC)c2OC)cc1OC [Lamellarin I-Methylate] | 3 (≈ 5.23 µM) | – | – | 0.5 (≈ 0.872 µM) | 2.5 (≈ 4.36 µM) | 2.5 (≈ 4.36 µM) | – | – | – | – | – | – | – |
| COc1ccc(-c2c3n(c4c(=O)oc5cc(OC(C)=O)c(OC)cc5c24)CCc2c-3cc(OC)c(OC)c2OC)cc1OC [Lamellarin I-acetate] | 5.5 (≈ 9.14 µM) | – | – | 2.5 (≈ 4.16 µM) | 5.5 (≈ 9.14 µM) | 5 (≈ 8.31 µM) | – | – | – | – | – | – | – |
| COc1cc2c(cc1O)oc(=O)c1c2c(-c2ccc(OC)c(OC)c2)c2n1CCc1c-2cc(OC)c(OC)c1OC [Lamellarin I] | 2.5 (≈ 4.47 µM) | – | – | 0.2 (≈ 0.357 µM) | 2.5 (≈ 4.47 µM) | 1 (≈ 1.79 µM) | 2 (≈ 3.57 µM) | 1 (≈ 1.79 µM) | ~0.25 (≈ 0.447 µM) | 1 (≈ 1.79 µM) | ~0.25 (≈ 0.447 µM) | – | – |
| COc1cc2c(cc1O)CCn1c-2c(-c2ccc(OC)c(OC)c2)c2c3cc(OC)c(O)cc3oc(=O)c21 [Lamellarin J] | 2 (≈ 3.88 µM) | – | – | 0.3 (≈ 0.582 µM) | 1.5 (≈ 2.91 µM) | 0.6 (≈ 1.16 µM) | 2.5 (≈ 4.85 µM) | 0.025 (≈ 0.0485 µM) | – | 0.1 (≈ 0.194 µM) | – | significantly better, particularly against A549 cells, than the lamellarins I, K and L | 2.5 (≈ 4.85 µM) |
